A word on the pIC50: it is the negative decadic logarithm of the IC50, by convention in mol/L. High values mean a low IC50, low ones a high IC50. For orientation: pEC50 means the negative decadic logarithm of the EC50, by convention in mol/L. Lower therefore signals a high EC50.

Experimental findings from patent US20260001889A1, “COMPOSITIONS USEFUL FOR MODULATING SPLICING” (Skyhawk Therapeutics, Inc., priority 2022, published 2026) are described below.

Structures are written as SMILES. pEC50, pIC50: −log10 of the molar value.

Experiment [1] concerns ATXN3 transcripts containing exon 4. Description: ATXN3 Quantitative Splicing Assay (qPCR, E4E5 primers/probe). The experiment is classed as cell-based. Conditions: Homo sapiens, SK-N-MC cells, compounds for 24 h. In outline:
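SK-N-MC human neuroblastoma cells treated 24 h with compound from 30 μM to 0.6 nM, 24 h after plating. Lysate cDNA was run in TaqMan qPCR, with primers/probe E4E5 detecting exon 4-containing ATXN3 transcripts and E8E9 measuring total ATXN3.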
In general terms: Real-time PCR tracks product formation cycle by cycle.

Experiment [2] concerns ATXN3-HiBiT protein. In words: ATXN3 Total Protein Assay (Kelly-ATXN3-HiBiT luminescence). The experiment is classed as cell-based. Conditions: Kelly-ATXN3-HiBiT cells, 48 h after addition of compound. In outline: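 Kelly cells with homozygous C-terminal HiBiT knock-in on endogenous ATXN3, 2000 per well, dosed 24 h after seeding. HiBiT lytic luminescence read 48 h after compound; sister plate read with CellTiter-Glo for viability; fold change vs DMSO.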
For orientation: With HiBiT, luminescence reflects the tagged protein that the partner subunit can reach.

Experiment [3] concerns total ATXN3 protein. Description: ATXN3 Total Protein Assay (Mesoscale Discovery, SK-N-MC cells). The experiment is classed as cell-based, Human. Conditions: incubation for 48 hours, MSD assay. In outline: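 Human SK-N-MC neuroblastoma cells treated with compound at 30 μM to 0.6 nM for 48 h, then lysed with protease inhibitors. Total ATXN3 quantified by MSD sandwich immunoassay (mouse capture, rabbit detect antibodies, anti-rabbit MSD-ST secondary) against recombinant ATXN3 standards.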

On to `C[C@H](N)Cc1oc2c(NCc3cccs3)cc(Cl)nc2c1-c1cnco1` [Compound 310], for which the pIC50 in experiment [1] and in experiment [3] was 6.30 to 7.00 each time. Besides, the pEC50 in experiment [2] is 6.30 to 7.00.

Regarding `C[C@H](N)Cc1oc2c(NCc3cccs3)cc(Cl)nc2c1-c1ccco1` [Compound 311, 2-[(S)-2-aminopropyl]-5-chloro-3-(2-furyl)-7-thenylamino-1-oxa-4-azaindene], the pIC50 was 5.30 to 6.30 in experiment [1] and 5.00 to 5.30 in experiment [3]. The molecule also showed a pEC50 in experiment [2] of 5.30 to 6.30.

As for `C[C@H](F)[C@H](N)Cc1oc2c(NCc3cccs3)cc(Cl)nc2c1-c1ncco1` [Compound 312, 2-[(2R,3S)-2-amino-3-fluorobutyl]-5-chloro-3-(1,3-oxazol-2-yl)-7-thenylamino-1-oxa-4-azaindene], the pIC50 in experiment [1] and in experiment [3] was 6.30 to 7.00 each time. The molecule further gave a pEC50 in experiment [2] of 7.00 to 11.00.

`C[C@H](N)Cc1oc2c(NCc3cccs3)cc(Cl)nc2c1-c1ncc[nH]1` [Compound 313, 2-[(2S)-2-aminopropyl]-5-chloro-3-(1H-imidazol-2-yl)-N-(thiophen-2-ylmethyl)furo[3,2-b]pyridin-7-amine]: the pIC50 in experiment [1] was 4.40 to 5.00; in experiment [3] it was 5.00 to 5.30. The same molecule had a pEC50 in experiment [2] of 4.40 to 5.00.

On to `C[C@H](N)Cc1oc2c(NCc3cccs3)cc(Cl)nc2c1-c1nccn1C` [Compound 314, 2-[(S)-2-aminopropyl]-5-chloro-3-(1-methyl-2-imidazolyl)-7-thenylamino-1-oxa-4-azaindene], for which the pIC50 in experiment [1] and in experiment [3] was 4.40 to 5.00 in each case. In experiment [2], this molecule showed a pEC50 of 4.40 to 5.00.

With `C[C@H](N)Cc1oc2c(NCc3cccs3)cc(Cl)nc2c1-c1ccnn1C` [Compound 316, 2-[(S)-2-aminopropyl]-5-chloro-3-(1-methyl-5-pyrazolyl)-7-thenylamino-1-oxa-4-azaindene], the pIC50 in experiment [1] and in experiment [3] was 4.40 to 5.00 in each case. The pEC50 in experiment [2] is 4.40 to 5.00.

For `C[C@H](N)Cc1oc2c(NCc3cccs3)cc(Cl)nc2c1-c1ccn(C)n1` [Compound 317, 2-[(S)-2-aminopropyl]-5-chloro-3-(1-methyl-3-pyrazolyl)-7-thenylamino-1-oxa-4-azaindene], the pIC50 in experiment [1] and in experiment [3] was 4.40 to 5.00 in each case. The pEC50 in experiment [2] was 5.30 to 6.30.

For the molecule `C[C@H](N)Cc1oc2c(NCc3cccs3)cc(Cl)nc2c1-c1ccn[nH]1` [Compound 319, 2-[(S)-2-aminopropyl]-5-chloro-3-(5-pyrazolyl)-7-thenylamino-1-oxa-4-azaindene], the pIC50 in experiment [1] and in experiment [3] was 5.30 to 6.30 in each case. In experiment [2], the pEC50 was 5.30 to 6.30.

For the molecule `Cc1coc(-c2c(C[C@H](C)N)oc3c(NCc4cccs4)cc(Cl)nc23)n1` [Compound 321, 2-[(S)-2-aminopropyl]-5-chloro-3-(4-methyl-1,3-oxazol-2-yl)-7-thenylamino-1-oxa-4-azaindene], the pIC50 in experiment [1] and in experiment [3] was 5.30 to 6.30 each time. This molecule also gave a pEC50 in experiment [2] of 5.30 to 6.30.

Turning to `Cc1cnc(-c2c(C[C@H](C)N)oc3c(NCc4cccs4)cc(Cl)nc23)o1` [Compound 322, 2-[(S)-2-aminopropyl]-5-chloro-3-(5-methyl-1,3-oxazol-2-yl)-7-thenylamino-1-oxa-4-azaindene], the pIC50 in experiment [1] and in experiment [3] was 5.30 to 6.30 in each case. In experiment [2], this molecule had a pEC50 of 5.30 to 6.30.

In the case of `C[C@H](N)Cc1oc2c(NCc3cccs3)cc(Cl)nc2c1-c1ccoc1` [Compound 328, 2-[(S)-2-aminopropyl]-5-chloro-3-(3-furyl)-7-thenylamino-1-oxa-4-azaindene], the pIC50 in experiment [1] and in experiment [3] was 4.40 to 5.00 in each case. Moreover, the pEC50 in experiment [2] was 4.40 to 5.00.

Turning to `C[C@H](F)[C@H](N)Cc1oc2c(NCc3cccs3)cc(Cl)nc2c1-c1ccco1` [Compound 331, 2-[(2R,3S)-2-amino-3-fluorobutyl]-5-chloro-3-(2-furyl)-7-thenylamino-1-oxa-4-azaindene], the pIC50 in experiment [1] and in experiment [3] was 5.30 to 6.30 in each case. In experiment [2], this molecule gave a pEC50 of 5.30 to 6.30.

With `C[C@H](F)[C@H](N)Cc1oc2c(NCc3cccs3)cc(Cl)nc2c1-c1ccoc1` [Compound 332, 2-[(2R,3S)-2-amino-3-fluorobutyl]-5-chloro-3-(3-furyl)-7-thenylamino-1-oxa-4-azaindene], the pIC50 in experiment [1] and in experiment [3] was 5.30 to 6.30 each time. For the same molecule, the pEC50 in experiment [2] is 5.30 to 6.30.

`C[C@H](F)[C@H](N)Cc1oc2c(NCc3cccs3)cc(Cl)nc2c1-c1ccn(C)n1` [Compound 333, 2-[(2R,3S)-2-amino-3-fluorobutyl]-5-chloro-3-(1-methyl-3-pyrazolyl)-7-thenylamino-1-oxa-4-azaindene]: the pIC50 in experiment [1] and in experiment [3] was 5.30 to 6.30 throughout. In experiment [2], the pEC50 was 5.00 to 5.30.

Take `C[C@H](F)[C@H](N)Cc1oc2c(NCc3cccs3)cc(Cl)nc2c1-c1ccnn1C` [Compound 334, 2-[(2R,3S)-2-amino-3-fluorobutyl]-5-chloro-3-(1-methyl-5-pyrazolyl)-7-thenylamino-1-oxa-4-azaindene]: the pIC50 in experiment [1] and in experiment [3] was 4.40 to 5.00 throughout. In experiment [2], this molecule gave a pEC50 of 4.40 to 5.00.

Regarding `C[C@H](N)Cc1oc2c(NCc3ccc(F)cc3)cc(Cl)nc2c1Br` [Compound 338, 2-[(S)-2-aminopropyl]-3-bromo-5-chloro-7-{[(p-fluorophenyl)methyl]amino}-1-oxa-4-azaindene], the pIC50 in experiment [1] and in experiment [3] was 5.30 to 6.30 in each case. In experiment [2], this molecule had a pEC50 of 5.30 to 6.30.

On to `C[C@H](N)Cc1oc2c(NCc3ccccc3F)cc(Cl)nc2c1Br` [Compound 340, 2-[(S)-2-aminopropyl]-3-bromo-5-chloro-7-{[(o-fluorophenyl)methyl]amino}-1-oxa-4-azaindene], for which the pIC50 in experiment [1] and in experiment [3] was 5.30 to 6.30 each time. The pEC50 in experiment [2] is 5.30 to 6.30.
